This note sets out measurements from article PMC10788923 (Journal of Medicinal Chemistry, 2023).

Data set [1] is described as follows: Mouse liver microsome stability. As to conditions: 0.5 mg protein/mL, 37 °C. The format is in vitro ADME.
Data set [2] is described as follows: In vivo pharmacokinetic study, oral dosing. On the set-up: species or system male C57BL/6J mice.
Setting [3] is: mouse, liver microsomes, read-out: MLM t1/2.
Where [4] appears, read: male, C57BL/6J, mouse plasma, PO 10 mg/kg, second number = SD.

As for `[O-][n+]1cccc(CCOc2ccc(Cl)c(C3CC3)c2)c1` [Compound 41, 3-(2-(4-Chloro-3-cyclopropylphenoxy)ethyl)pyridine 1-oxide], in data set [1] (setting [3]), the half-life at 1 h, 1 µM came to 7.2 min.
The same measure, in the same setting: to `O=c1cccc(CCOc2ccc(Cl)cc2)[nH]1` [Compound 60, 6-(2-(4-Chlorophenoxy)ethyl)pyridin-2-ol] belongs 11.7 min.
`[O-][n+]1cc(O)cc(CCCc2ccc(Cl)c(C(F)(F)F)c2)c1` [Compound 69, 3-(3-(4-Chloro-3-(trifluoromethyl)phenyl)propyl)-5-hydroxypyridine 1-oxide] showed a half-life in data set [2] (male, C57BL/6J, plasma, mouse, oral dosing 10 mg/kg) of 53 min. In data set [2] (male, C57BL/6J, mouse plasma, PO 10 mg/kg), this compound gave a Cmax at 24 h of 310 nM. In addition, in data set [2] (setting [4]), the Tmax at 24 h was 25 min and the half-life at 24 h is 53.3 min. The MRT inf at 24 h in data set [2] (male, C57BL/6J, mouse plasma, PO 10 mg/kg, second number = SD, read-out: MRT0-inf) amounted to 81 min. In addition, the “oral bioavailability (in words)” value in data set [2] (mouse, oral dosing 10 mg/kg) is listed as “orally bioavailable”. Further, the “MLM t1/2” value in data set [1] (mouse liver microsomes, 1 μM) amounted to 104.7 min. Also, the half-life at 1 μM in data set [1] (setting [3]) was found to be 105 min.
